In patent US12558325B2, “Methods for improving neurological diseases and disorders” (CuraSen Therapeutics, Inc., priority 2019, dated 2026):
Entries after “also recorded” stand apart in the source; their conditions may differ.

Legend:
Ts65Dn mice = conditions: increasing brain NE levels; cited from earlier work
healthy subjects [1] = test: ASL MRI cerebral perfusion before and after a single dose (Example 3); assay type: in vivo, human
Experimental: In a clinical study, healthy subjects were administered doses of clenbuterol ranging from 20 to 160 μg and ASL MRI was conducted prior to and after dosing with an objective to ascertain whether this neuroimaging method enables the detection of a clinically relevant CNS signal.
In a region of interest (ROI) analysis focusing on the hippocampus, which is well understood to be affected in neurodegenerative disorders, a single dose of 80 μg of clenbuterol causes a robust increase in perfusion (see FIG. 7). […] Taken together with other cohorts in which ASL MRI was conducted, a clear dose response relationship is seen between dose of clenbuterol and cerebral perfusion (FIG. 8). […] Our hypothesis is that by improving cerebral perfusion, particularly in areas of the brain that are relevant for symptoms that are commonly found in neurodegenerative diseases such as PD and AD, the administration of a β2-AR agonist will have a positive effect on clinically relevant symptoms such as memory and cognition.

healthy subjects [2] = test: Adaptive tracking test (visuomotor coordination and vigilance); assay type: in vivo, human; conditions: single dose of 160 μg clenbuterol
From the text: Adaptive tracking measures visuomotor coordination and vigilance. In this test, the subject uses a joystick to move a small dot so that it stays within a continuously moving circle on a computer screen (Boland 1984). During the test, the speed of the circle is adjusted in response to the subject's ability to keep the dot in the circle, ensuring that the test is adapted to the individual subject. […] The improvement shown by subjects is in the same range as that seen with subjects treated with the acetylcholinesterase inhibitor donepezil, which is in clinical use for the treatment of mild to moderate AD (Groeneveld 2016).

subjects = test: Visual verbal learning test (VVLT); assay type: in vivo, human; conditions: crossover study; for effect on the VVLT (learning and memory): 3 agents plus placebo
Experimental: The visual verbal learning test (VVLT) is a test for learning and memory (de Haas 2009). Subjects are presented 30 words on a screen, one at a time, for 1 second with a 1-second interval between words over a total of 1 minute. This is repeated in 3 trials. After each trial, subjects are asked to recall as many words as they can. After the third trial, there is a delay of 2.5 hours and subjects are then tested once for delayed recall. […] Since this was a crossover study, everyone who completed Part A was dosed with the 3 agents plus placebo.

patients = test: Cerebral blood flow relative to baseline after a single dose (Example 1); assay type: in vivo, human

N[C@H](C(=O)O)[C@H](O)c1ccc(O)c(O)c1 [L-DOPS, L-threo-3,4-dihydroxyphenylserine]
contextual learning (Ts65Dn mice): restored contextual learning

CC(C)(C)NCC(O)c1cc(Cl)c(N)c(Cl)c1 (stereo not shown) [clenbuterol]
cerebral perfusion increase as measured by CBF (healthy subjects [1]; clenbuterol dose of 40 μg): minimal increase
cerebral perfusion increase as measured by CBF (healthy subjects [1]; clenbuterol doses below 30 μg): do not produce significant cerebral perfusion increases
improvements in perfusion in brain areas relevant to neurodegenerative disorders (healthy subjects [1]; doses of 80 and 160 μg clenbuterol): ~25%
global perfusion (healthy subjects [1]; doses of 80 and 160 μg clenbuterol, ASL MRI): robust, global increase
increase in hippocampal perfusion, on average (healthy subjects [1]; single dose of 80 μg clenbuterol, 6 healthy subjects aged 44 to 52, ROI hippocampus): 25%
cerebral perfusion (global; hippocampus, thalamus, cortex) (healthy subjects [1]; single dose of 160 μg clenbuterol, ASL MRI): robust global increase
performance in adaptive tracking (percent time dot kept within moving circle) (healthy subjects [2]): improved
cognition as measured by adaptive tracking and word recall (healthy subjects [2]; healthy subjects, preliminary data): improves cognition
VVLT performance, immediate recall (Trial 1) (subjects): improved performance
effect on the VVLT (learning and memory) (subjects): positive effects
VVLT performance, delayed recall (subjects; recall after delay of 2.5 hours): improved performance
cerebral blood flow (CBF) relative to the baseline (patients; single dose of clenbuterol 160 μg): robust global increase; also recorded: positive increase
cerebral blood flow (CBF) relative to the baseline (patients; single dose of clenbuterol ranging from 30 to 160 μg, tracked over 3 days): robust global increase

CC(C)NCC(O)COc1cccc2[nH]ccc12 (stereo not shown) [pindolol]
effect on the VVLT (learning and memory) (subjects): detrimental effect

CC(C)(C)NCC(O)c1ccc(O)c(CO)c1 (stereo not shown) [salbutamol]
effect on the VVLT (learning and memory) (subjects): positive effects
